# Where two headings read alike, the source gives them in different places.
# Columns and labels:
# Ribo-S6 phosphorylation = assay: Inhibition of ribosomal protein S6 phosphorylation in stimulated primary human T cells (flow cytometry); format: cell-based
# Method: The dose effect of exemplary mTOR kinase inhibitors in primary human T cells was assessed by monitoring inhibition of ribosomal protein S6.
# CD4+ and CD8+ T cells were isolated by immunoaffinity-based enrichment from leukapheresis samples from human donor subjects. Isolated CD4+ and CD8+ T cells were mixed 1:1 and stimulated with anti-CD3/anti-CD28 magnetic beads in the presence of increasing concentrations of an mTOR kinase inhibitor, PI-103, Compound 155, Compound 63, or Compound 246. The T cell cultures were incubated overnight (approximately 16 hr) at 37° C. Following incubation in the presence of PI-103, Compound 155, Compound 63, or Compound 246, T cells were assessed for intracellular S6 phosphorylation and co-stained for surface expression of CD4 or CD8, by flow cytometry.
# [1] = system: engineered CD8+ and CD4+ T cells; assay: T cell expansion of anti-CD19 CAR-transduced CD4+ and CD8+ T cells incubated with mTOR kinase inhibitor; format: cell-based
# Method: Separate compositions of CD4+ and CD8+ cells were isolated from human leukapheresis samples by immunoaffinity-based enrichment and cryofrozen. The CD4+ and CD8+ cells of the compositions were subsequently thawed and activated by separately culturing the cells under stimulating conditions in the presence of anti-CD3/anti-CD28 magnetic beads and recombinant IL-2, IL-7 and/or IL-15 for approximately 20 hours. Cells were then transduced with a viral vector encoding an anti-CD19 chimeric antigen receptor (CAR). After transduction, the CD4+ and CD8+ cells were separately incubated in the presence of an mTOR kinase inhibitor, either Compound 155, Compound 63, or Compound 246, at various concentrations. For controls, cells were incubated with media only, DMSO vehicle, or with 200 nM PI-103. Incubation was carried out at 37° C. for approximately 8 days post-thaw with one media change, at which point the compounds were re-added to the culture media at the same concentration.
# The percent of CD8+ and CD4+ T cells at the end of the process as compared to the amount of cells seeded for culture following the transduction is shown in FIG. 2. The cutoff for selecting a tolerated dose was set at 70% of the mean values of the media and DMSO controls.
# [2] = Homo sapiens, T-cell, CD8+ T cells, read-out: IC50 for inhibition of Ribo-S6 phosphorylation, CD8
# [3] = Homo sapiens, CD4+ T cells, read-out: IC50 for inhibition of Ribo-S6 phosphorylation, CD4
# [4] = T-cell, primary human CD4+/CD8+ T cells mixed 1:1, anti-CD3/anti-CD28 beads, approximately 16 hr, read-out: IC50 for the inhibition of S6 phosphorylation in the T cells
structure (smiles),measurement,setting,value
"O=c1[nH]c2ncc(-c3ccc(-c4nc[nH]n4)cc3)nc2n1CCC1CCOCC1 [Compound 155, 6-(4-(2H-1,2,4-Triazol-3-yl)phenyl)-1-(2-(tetrahydro-2H-pyran-4-yl)ethyl)-1H-imidazo [4,5-b]pyrazine-2(3H)-one]",IC50,Ribo-S6 phosphorylation; [2],127 nM
same,IC50,Ribo-S6 phosphorylation; [3],121 nM
same,IC50,Ribo-S6 phosphorylation; [4],~100 nM
same,highest tolerated dose resulting in similar CD8 and CD4 T cell expansion as vehicle control,[1]; human,100 nM
"CO[C@H]1CC[C@H](N2C(=O)CNc3ncc(-c4ccc(C(C)(C)O)nc4)nc32)CC1 [Compound 246, 7-(6-(2-hydroxypropan-2-yl)pyridin-3-yl)-1-((1r,4r)-4-methoxycyclohexyl)-3,4-dihydropyrazino[2,3-b]pyrazin-2(1H)-one]",IC50,Ribo-S6 phosphorylation; [2],502 nM
same,IC50,Ribo-S6 phosphorylation; [3],475 nM
same,IC50,Ribo-S6 phosphorylation; [4],~500 nM
same,highest tolerated dose resulting in similar CD8 and CD4 T cell expansion as vehicle control,"[1]; cutoff 70% of mean of media and DMSO controls, approximately 8 days post-thaw",100 nM
